Reference: publication PMC12406721, “Chronic integrated stress response causes dysregulated cholesterol synthesis in white matter disease” (JCI Insight, 2025)

How the values were obtained:
[1] = target: T1, eIF2B (Mus musculus, UniProt Q61749+Q99LD9); assay: 2BAct dose response in N208Y cells (read-out only in supplement); type: cell-based; conditions: activator, cell line not restated, read-out not told in main text
T1 construct: gene Eif2b2; endogenous complex in MIN-6 cells or their lysate; decamer α2β2δ2(γε)2; alpha subunit strongly depleted in N208Y cells (mostly octamer β2δ2γ2ε2); with Translation initiation factor eIF2B subunit alpha; Translation initiation factor eIF2B subunit gamma; Translation initiation factor eIF2B subunit epsilon

[2] = target: T2, eIF2B-α (Homo sapiens, UniProt Q14232); assay: NanoDSF thermal unfolding; type: binding; conditions: stabilises; concentration not told in main text
T2 construct: gene EIF2B1; purified recombinant alpha subunit, homodimer
T2 sequence (Q14232 1-305): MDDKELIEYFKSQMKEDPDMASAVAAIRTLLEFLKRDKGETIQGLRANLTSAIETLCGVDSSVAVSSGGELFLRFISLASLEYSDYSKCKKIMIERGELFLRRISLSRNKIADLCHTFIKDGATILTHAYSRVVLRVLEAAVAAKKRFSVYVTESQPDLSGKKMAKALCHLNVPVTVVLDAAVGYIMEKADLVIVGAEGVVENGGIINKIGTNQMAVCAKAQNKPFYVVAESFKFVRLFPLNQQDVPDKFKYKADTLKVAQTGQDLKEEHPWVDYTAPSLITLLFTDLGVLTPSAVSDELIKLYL

T1 sequence (Q99LD9 whole entry): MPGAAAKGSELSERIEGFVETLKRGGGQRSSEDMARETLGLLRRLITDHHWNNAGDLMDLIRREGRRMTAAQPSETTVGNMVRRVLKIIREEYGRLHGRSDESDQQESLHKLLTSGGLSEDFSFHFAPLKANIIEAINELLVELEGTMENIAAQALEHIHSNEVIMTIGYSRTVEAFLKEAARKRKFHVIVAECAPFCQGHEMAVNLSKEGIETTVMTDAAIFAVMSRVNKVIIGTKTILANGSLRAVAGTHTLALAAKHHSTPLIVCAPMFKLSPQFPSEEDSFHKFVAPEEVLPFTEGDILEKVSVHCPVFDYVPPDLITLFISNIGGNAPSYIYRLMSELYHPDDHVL
T1 sequence (Q61749 2-524): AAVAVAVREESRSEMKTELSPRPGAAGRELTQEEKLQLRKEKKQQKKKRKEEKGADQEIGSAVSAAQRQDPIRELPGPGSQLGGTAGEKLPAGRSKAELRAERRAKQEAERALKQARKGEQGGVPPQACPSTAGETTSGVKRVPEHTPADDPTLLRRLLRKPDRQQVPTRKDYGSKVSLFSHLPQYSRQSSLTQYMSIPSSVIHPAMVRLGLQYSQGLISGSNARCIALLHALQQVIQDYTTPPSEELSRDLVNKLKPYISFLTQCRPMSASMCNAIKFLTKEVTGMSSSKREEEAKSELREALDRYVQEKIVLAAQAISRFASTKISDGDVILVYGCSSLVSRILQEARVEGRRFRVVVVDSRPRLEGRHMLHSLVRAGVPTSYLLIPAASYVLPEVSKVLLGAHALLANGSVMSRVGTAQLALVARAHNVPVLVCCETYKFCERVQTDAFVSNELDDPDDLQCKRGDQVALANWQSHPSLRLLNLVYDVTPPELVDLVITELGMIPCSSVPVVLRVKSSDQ
T1 sequence (Q99LC8 whole entry N208Y partner): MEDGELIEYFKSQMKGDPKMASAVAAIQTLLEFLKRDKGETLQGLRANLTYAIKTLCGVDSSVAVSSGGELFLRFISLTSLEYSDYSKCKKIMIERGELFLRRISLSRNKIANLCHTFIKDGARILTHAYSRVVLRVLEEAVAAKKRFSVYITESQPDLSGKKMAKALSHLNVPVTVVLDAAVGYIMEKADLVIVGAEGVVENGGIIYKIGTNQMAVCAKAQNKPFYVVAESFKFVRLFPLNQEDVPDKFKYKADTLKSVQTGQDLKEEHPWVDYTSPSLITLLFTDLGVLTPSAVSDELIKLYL
T1 sequence (Q8CHW4 whole entry partner): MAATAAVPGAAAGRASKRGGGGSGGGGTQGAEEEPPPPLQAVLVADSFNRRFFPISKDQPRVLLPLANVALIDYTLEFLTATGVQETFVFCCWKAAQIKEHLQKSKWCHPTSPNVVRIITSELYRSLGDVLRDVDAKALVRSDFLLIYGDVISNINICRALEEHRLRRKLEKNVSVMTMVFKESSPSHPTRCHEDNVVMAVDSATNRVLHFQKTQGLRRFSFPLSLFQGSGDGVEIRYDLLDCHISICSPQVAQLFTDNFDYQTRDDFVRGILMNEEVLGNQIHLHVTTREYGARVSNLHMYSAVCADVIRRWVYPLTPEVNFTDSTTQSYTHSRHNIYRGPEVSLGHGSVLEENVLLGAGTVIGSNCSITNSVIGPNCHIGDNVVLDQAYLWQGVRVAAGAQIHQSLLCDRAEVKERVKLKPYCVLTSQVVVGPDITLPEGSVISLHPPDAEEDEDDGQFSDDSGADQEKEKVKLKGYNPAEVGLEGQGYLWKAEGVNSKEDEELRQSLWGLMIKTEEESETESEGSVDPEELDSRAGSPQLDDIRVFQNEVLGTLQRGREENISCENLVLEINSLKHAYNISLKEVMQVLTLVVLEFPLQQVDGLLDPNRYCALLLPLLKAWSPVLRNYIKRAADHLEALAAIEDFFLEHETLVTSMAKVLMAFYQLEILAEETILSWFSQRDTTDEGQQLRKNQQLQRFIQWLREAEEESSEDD

| SMILES | EC50 [1] | Tm [2] |
| --- | --- | --- |
| O=C(COc1ccc(Cl)c(F)c1)NC12CC(NC(=O)c3cnc(C(F)F)cn3)(C1)C2 [2BAct] | 27.8 nM |  |
| O=P(O)(O)OC[C@H]1OC(O)(CO)[C@@H](O)[C@@H]1O (some centres unmarked) [fructose-6-phosphate] |  | addition of F6P further increased the stability of WT eIF2B-α |
